Experiments:
[1] = Cytotoxicity against human FRO cells assessed as reduction in cell viability incubated for 72 hrs by Cell-titer 96 aqueous one assay; format: functional, cell-based
[2] = Cytotoxicity against human FRO cells assessed as reduction in cell viability in presence of shHMGA1 incubated for 72 hrs by Cell-titer 96 aqueous one assay; format: functional, cell-based
[3] = Cytotoxicity against human ACT1 cells assessed as reduction in cell viability incubated for 72 hrs by Cell-titer 96 aqueous one assay; format: functional, cell-based
[4] = system: 8505C; test: Cytotoxicity against human 8505C cells assessed as reduction in cell viability incubated for 72 hrs by Cell-titer 96 aqueous one assay; format: functional, cell-based
[5] = Potency index, ratio of IC50 for mycalol to IC50 for test compound against human FRO cells assessed as reduction in cell viability incubated for 72 hrs by Cell-titer 96 aqueous one assay; format: functional
[6] = Cytotoxicity against human FRTL5 cells assessed as reduction in cell viability incubated for 72 hrs by Cell-titer 96 aqueous one assay; format: cell-based; details: FRTL-5, 72 h

Work on `CCCCC[C@H](CCCCCCCCCC[C@H](O)[C@H](O)CC[C@H](O)[C@H](O)CCOC[C@H](O)CO)OC(C)=O` yielded an IC50 [1] of 16 µM.

In the case of `CCCCCCC[C@H](CCCCCCCCCC[C@H](O)[C@H](O)CC[C@H](O)[C@H](O)CCOC[C@H](O)CO)OC(=O)C[C@H](C)O`, the IC50 [1] is reported as 16 µM.

`CCCCCCCC[C@H](CCCCCCCCCC[C@H](O)[C@H](O)CC[C@H](O)[C@H](O)CCOC[C@H](O)CO)OC(=O)C[C@H](C)O` gave an IC50 [1] of 20 µM.

`CCCCCCCCC[C@H](CCCCCCCCCC[C@H](O)[C@H](O)CC[C@H](O)[C@H](O)CCOC[C@H](O)CO)OC(=O)C[C@H](C)O` gave an IC50 [1] of 4.7 µM.

Molecule `CCCCCCC[C@H](CCCCCCCCCC[C@H](O)[C@H](O)CC[C@H](O)[C@H](O)CCOC[C@H](O)CO)OC(C)=O` (stereo in doubt; form 1) has an IC50 [1] of 2.3 µM, an IC50 ([2]; Homo sapiens, 72 h) of 3.3 µM and an IC50 ([3]; Homo sapiens, 72 h) of 4.8 µM. The IC50 ([4]; Homo sapiens, 8505C, 72 h) was 2.6 µM and the “Ratio IC50” value [5] was 6.

In the case of `CCCCCCC[C@H](CCCCCCCCCC[C@H](O)[C@H](O)CC[C@H](O)[C@H](O)CCOC[C@H](O)CO)OC(C)=O` (stereo in doubt; form 2), the IC50 [2] is reported as 3.4 µM, the IC50 [3] is reported as 5.1 µM and the IC50 ([4]; 8505c) is reported as 2.1 µM. For the same molecule, the IC50 [6] was greater than 40 µM.
